The source of these data is publication PMC4498294, “Tetrahydroisoquinolines affect the whole-cell phenotype of Mycobacterium tuberculosis by inhibiting the ATP-dependent MurE ligase” (Journal of Antimicrobial Chemotherapy, 2015).

≈ marks a conversion by molar mass, not a printed value. Where “and” joins values, the source holds several entries; their conditions need not be identical. Identical values can stand only once. Like-named read-outs stand apart in the source and are kept apart here. Where only a bound is given, the exact number is not on record here.

For one assay, the system named is M. bovis BCG Pasteur. Put plainly: microbe, parasite or virus in culture. Particulars: for MIC: Mycobacterium tuberculosis variant bovis BCG, BCG; for MIC M. bovis BCG: SPOTi, 2 weeks at 37°C. In kind it is cell-based.
Assay [1] has as its system murine macrophage cell line RAW264.7. Briefly: Eukaryotic cell toxicity assay, RAW264.7. In kind it is cell-based. Particulars: Mus musculus.
Assay [2] addresses MurE (Rv2158c) protein of M. tuberculosis H37Rv (Mycobacterium tuberculosis, UniProt P9WJL3). Put plainly: Mtb-MurE HPLC inhibition assay. In kind it is biochemical. Particulars: HPLC assay, 37°C 30 min.
A further assay relates to M. tuberculosis H37Rv. Briefly: SPOTi growth inhibition assay, M. tuberculosis H37Rv. It is filed as cell-based. Particulars: Mycobacterium tuberculosis, H37RV, SPOTi, read-out: MIC M. tuberculosis H37Rv.
[3] abbreviates: 336 h, read-out: MIC M. bovis BCG, SPOTi, 2 weeks at 37°C.
Where [4] appears, read: read-out: MIC M. bovis BCG, SPOTi, value in square brackets.
The mark [5] stands for this setting: RAW264.7, value in square brackets, read-out: GIC50 RAW264.7.
The mark [6] stands for this setting: murine macrophage cell line RAW264.7, read-out: GIC50 RAW264.7.
The mark [7] stands for this setting: RAW264.7, read-out: GIC50 RAW264.7.

Sequence of MurE (Rv2158c) protein of M. tuberculosis H37Rv (P9WJL3 whole entry, looked up): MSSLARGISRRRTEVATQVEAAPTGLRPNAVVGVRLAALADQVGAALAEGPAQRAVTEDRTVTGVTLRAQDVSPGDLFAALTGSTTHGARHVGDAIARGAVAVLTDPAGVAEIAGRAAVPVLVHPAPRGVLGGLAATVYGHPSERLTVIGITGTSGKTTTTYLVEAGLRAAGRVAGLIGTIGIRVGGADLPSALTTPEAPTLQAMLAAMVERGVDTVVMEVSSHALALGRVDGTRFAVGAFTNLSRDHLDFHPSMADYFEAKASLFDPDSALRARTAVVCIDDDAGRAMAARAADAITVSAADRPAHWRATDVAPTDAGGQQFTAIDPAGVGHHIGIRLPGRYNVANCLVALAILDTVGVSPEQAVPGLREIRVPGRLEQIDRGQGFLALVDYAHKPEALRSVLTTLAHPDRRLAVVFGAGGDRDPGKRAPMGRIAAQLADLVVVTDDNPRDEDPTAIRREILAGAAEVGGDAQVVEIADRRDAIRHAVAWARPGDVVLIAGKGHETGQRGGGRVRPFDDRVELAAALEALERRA

With `C[C@@H]1NC(Cc2ccc3c(c2)OCO3)c2ccc(O)cc2[C@H]1O` (some centres unmarked) [Compound 25], the MIC was over 100 µg/mL in the assay on M. bovis BCG Pasteur (setting [3]) and over 319 µM in the assay with M. bovis BCG Pasteur (setting [4]). For the same compound, the IC50 came to 578 µM in assay [1] (setting [5]) and 181 µg/mL in assay [1] (setting [6]).
As to `Oc1cc2c(c(O)c1O)C(c1cccc3c1OCO3)NCC2` (centres unmarked) [Compound 33], the MIC in the assay on M. bovis BCG Pasteur (setting [3]) is over 100 µg/mL; with M. bovis BCG Pasteur (setting [4]), over 332 µM. Moreover, the IC50 in assay [1] (setting [5]) is 18 µM; in assay [1] (setting [6]), 5.5 µg/mL; in assay [2], 148 µM.
Consider `Oc1cc2c(cc1O)C(C1CCCCC1)NCC2` (centres unmarked) [Compound 23], for which the MIC in the assay with M. bovis BCG Pasteur (setting [3]) is over 100 µg/mL; in the assay on M. bovis BCG Pasteur (setting [4]), over 404 µM; in the assay with M. tuberculosis H37Rv (336 h, 2 weeks at 37°C), over 100 µg/mL; with M. tuberculosis H37Rv (value in square brackets) it was over 404 µM. The IC50 in assay [1] (setting [5]) was 182 µM; in assay [1] (setting [6]), 45 µg/mL.
For the compound `Oc1cc2c(cc1O)C(c1cncc3ccccc13)NCC2` (centres unmarked) [Compound 12], the MIC in the assay on M. bovis BCG Pasteur (setting [3]) was over 100 µg/mL; in the assay with M. bovis BCG Pasteur (setting [4]), over 342 µM. Also, the IC50 in assay [1] (setting [5]) is over 855 µM; in assay [1] (setting [6]), over 250 µg/mL.
As to `CN1C[C@H](O)c2cc(O)c(O)cc2[C@@H]1c1cccc2c1OCO2` [Compound 31], the MIC was over 100 µg/mL in the assay with M. bovis BCG Pasteur (setting [3]) and over 317 µM in the assay on M. bovis BCG Pasteur (setting [4]). Also, the values for the IC50 in assay [1] (setting [5]) and in assay [1] (setting [6]) were 434 µM and 137 µg/mL, respectively.
For `COc1cc(CC2NCCc3cc(O)c(O)cc32)ccc1O` (centres unmarked) [Compound 19] the same measures were over 100 µg/mL, over 332 µM, 166 µM and 50 µg/mL.
On to `Oc1cc2c(cc1O)C(c1ccccc1O)NCC2` (centres unmarked) [Compound 8], for which the values for the MIC in the assay with M. bovis BCG Pasteur (setting [3]) and in the assay with M. bovis BCG Pasteur (setting [4]) were over 100 µg/mL and over 389 µM, respectively. The IC50 stood at 338 µM in assay [1] (setting [5]) and 87 µg/mL in assay [1] (setting [6]).
For `Oc1cc2c(cc1O)C(Cc1ccccc1Br)NCC2` (centres unmarked) [Compound 21] the same measures were over 100 µg/mL, over 299 µM, 141 µM and 47 µg/mL.
For the compound `CC(C)=CCC[C@H](C)CC1NCCc2cc(O)c(O)cc21` (some centres unmarked) [Compound 13], the MIC in the assay on M. bovis BCG Pasteur (setting [3]) is over 60 µg/mL; in the assay with M. bovis BCG Pasteur (setting [4]) it was 346 µM. Moreover, in the assay with M. bovis BCG Pasteur, the “MIC M. bovis BCG” value came out at 100 µg/mL (≈ 346 µM). Further, the values for the IC50 in assay [1] (setting [5]) and in assay [1] (setting [6]) were over 864 µM and over 250 µg/mL, respectively.
As for `Oc1ccc(CC2NCCc3cc(O)c(O)cc32)cc1` (centres unmarked) [Norcoclaurine (2), Norcoclaurine], the MIC in the assay with M. bovis BCG Pasteur (setting [3]) was over 100 µg/mL; in the assay with M. bovis BCG Pasteur (setting [4]), over 369 µM. In addition, the IC50 came out at 1570 µM in assay [1] (setting [5]), 425 µg/mL in assay [1] (setting [6]) and 837 µM in assay [2].
On to `Oc1cc2c(cc1O)C(c1cccs1)NCC2` (centres unmarked) [Compound 9], for which the MIC is over 100 µg/mL in the assay on M. bovis BCG Pasteur (setting [3]) and over 404 µM in the assay on M. bovis BCG Pasteur (setting [4]). The IC50 in assay [1] (setting [7]) is 56 µg/mL and 226 µM.
In the case of `Oc1ccc(C2NCCc3cc(O)c(O)cc32)cc1` (centres unmarked) [Compound 6], the MIC in the assay with M. bovis BCG Pasteur (setting [3]) was over 100 µg/mL; with M. bovis BCG Pasteur (setting [4]) it was over 389 µM. The IC50 amounted to 358 µM in assay [1] (setting [5]) and 92 µg/mL in assay [1] (setting [6]).
For `OC[C@@H](O)[C@@H]1NCCc2cc(O)c(O)cc21` [Compound 14] the same measures were over 100 µg/mL, over 444 µM, 377 µM and 85 µg/mL.
For `COc1ccc(C2NCCc3cc(O)c(O)cc32)cc1` (centres unmarked) [Compound 5] the same measures were over 100 µg/mL, over 369 µM, 335 µM and 91 µg/mL.
For `O=C(O)[C@@H]1Cc2cc(O)c(O)cc2[C@@H](Cc2ccccc2)N1` [Compound 11] the same measures were over 100 µg/mL, over 334 µM, 291 µM and 87 µg/mL.
For the compound `O=C(O)[C@@H]1Cc2cc(O)c(O)cc2C(Cc2ccc3c(c2)OCO3)N1` (some centres unmarked) [Compound 26], the MIC in the assay with M. bovis BCG Pasteur (setting [3]) is over 100 µg/mL; in the assay on M. bovis BCG Pasteur (setting [4]) it was over 291 µM. Also, the IC50 in assay [1] (setting [5]) was determined as 533 µM; in assay [1] (setting [6]) it was 183 µg/mL.
On to `Oc1cc2c(cc1O)[C@@H](O)CN[C@H]2Cc1ccccc1` [Compound 10], for which the MIC with M. bovis BCG Pasteur (setting [3]) is over 60 µg/mL; in the assay on M. bovis BCG Pasteur (336 h, read-out: MIC M. bovis BCG, SPOTi, value in square brackets), 271 µM. For the same compound, the “MIC M. bovis BCG” value against M. bovis BCG Pasteur was determined as 100 µg/mL (≈ 369 µM). Further, the IC50 in assay [1] (setting [7]) was > 250 µg/mL and > 566 µM.
Regarding `Oc1cccc(CC2NCCc3cc(O)c(O)cc32)c1` (centres unmarked) [Compound 17], the MIC was over 100 µg/mL in the assay on M. bovis BCG Pasteur (setting [3]) and over 369 µM in the assay with M. bovis BCG Pasteur (setting [4]). The IC50 is 236 µM in assay [1] (setting [5]) and 64 µg/mL in assay [1] (setting [6]).
Regarding `CC1(C(=O)O)NCCc2cc(O)c(O)cc21` (centres unmarked) [Compound 22], the results for the MIC in the assay on M. bovis BCG Pasteur (setting [3]) and with M. bovis BCG Pasteur (setting [4]) were over 100 µg/mL and over 448 µM, respectively. Also, the IC50 in assay [1] (setting [5]) was 797 µM; in assay [1] (setting [6]), 178 µg/mL.
For `Oc1cc2c(cc1O)[C@@H](O)CNC2c1cccc2c1OCO2` (some centres unmarked) [Compound 30] the same measures were over 100 µg/mL, over 332 µM, 295 µM and 89 µg/mL.
For `Oc1cc2c(cc1O)C(c1ccccn1)NCC2` (centres unmarked) [Compound 4] the same measures were over 100 µg/mL, over 413 µM, 248 µM and 60 µg/mL.
For `COc1ccc(CC2NCCc3cc(O)c(O)cc32)cc1OC` (centres unmarked) [Compound 18] the same measures were over 100 µg/mL, over 317 µM, 178 µM and 56 µg/mL.
In the case of `Oc1cc2c(cc1O)C(c1cccc3c1OCO3)NCC2` (centres unmarked) [Compound 29], the MIC in the assay on M. bovis BCG Pasteur (setting [3]) was over 100 µg/mL; in the assay with M. bovis BCG Pasteur (setting [4]), over 351 µM. Besides, the results for the IC50 in assay [1] (setting [5]), in assay [1] (setting [6]) and in assay [2] were 263 µM, 75 µg/mL and 471 µM, respectively.
In the case of `Nc1ccc2c(c1)CCNC2Cc1ccccc1` (centres unmarked) [Compound 15], the figures for the MIC in the assay with M. bovis BCG Pasteur (setting [3]) and in the assay with M. bovis BCG Pasteur (setting [4]) were over 100 µg/mL and over 420 µM, respectively. Besides, the IC50 was 789 µM in assay [1] (setting [5]) and 188 µg/mL in assay [1] (setting [6]).
For `CN1C[C@H](O)c2cc(O)c(O)cc2[C@H]1c1cccc2c1OCO2` [Compound 32] the same measures were over 100 µg/mL, over 317 µM, 574 µM and 181 µg/mL.
For `Oc1cc2c(cc1O)C(Cc1ccccc1)NCC2` (centres unmarked) [Compound 3] the same measures were over 100 µg/mL, over 392 µM, 313 µM and 81 µg/mL.
Consider `Oc1ccc2c(c1)CCNC2Cc1ccc2c(c1)OCO2` (centres unmarked) [Compound 27], for which the MIC in the assay with M. bovis BCG Pasteur (setting [3]) was found to be 100 µg/mL; with M. bovis BCG Pasteur (setting [4]), 353 µM. Besides, the IC50 in assay [1] (setting [5]) is 529 µM; in assay [1] (setting [6]) it was 150 µg/mL; in assay [2] it was over 1000 µM.
Turning to `Oc1cccc(C2NCCc3cc(O)c(O)cc32)c1` (centres unmarked) [Compound 7], the MIC is over 100 µg/mL in the assay with M. bovis BCG Pasteur (setting [3]) and over 389 µM in the assay on M. bovis BCG Pasteur (setting [4]). Besides, the figures for the IC50 in assay [1] (setting [5]) and in assay [1] (setting [6]) were 342 µM and 88 µg/mL, respectively.
`Oc1ccc2c(c1)CCNC2c1cccc2c1OCO2` (centres unmarked) [Compound 34]: the figures for the MIC in the assay with M. bovis BCG Pasteur (setting [3]) and in the assay on M. bovis BCG Pasteur (setting [4]) were over 100 µg/mL and over 371 µM, respectively. Moreover, the results for the IC50 in assay [1] (setting [5]), in assay [1] (setting [6]) and in assay [2] were 672 µM, 181 µg/mL and over 1000 µM, respectively.
As to `Oc1ccc2c(c1)CCNC2Cc1ccccc1` (centres unmarked) [Compound 16], the MIC with M. bovis BCG Pasteur (setting [3]) is over 60 µg/mL; in the assay with M. bovis BCG Pasteur (setting [4]), 418 µM. In the assay with M. bovis BCG Pasteur, the “MIC M. bovis BCG” value stood at 100 µg/mL (≈ 418 µM). Also, the figures for the IC50 in assay [1] (setting [5]) and in assay [1] (setting [6]) were 683 µM and 195 µg/mL, respectively.
